Where two headings read alike, the source gives them in different places.
How the values were obtained:
[1] = system: KM12; assay: NCI-60 SRB screen: colon cancer KM12; format: cell-based, human
[2] = system: 60 human tumor cell lines; assay: cells
[3] = system: HT29; assay: NCI-60 SRB screen: colon cancer HT29; format: cell-based; details: Homo sapiens, HT-29, 48 h
[4] = system: A498; assay: NCI-60 SRB screen: renal cancer A498; format: cell-based, human
[5] = system: PC-3; assay: NCI-60 SRB screen: prostate cancer PC-3; format: cell-based, human
[6] = system: EKVX; assay: NCI-60 SRB screen: non-small cell lung cancer EKVX; format: cell-based, human
[7] = system: COLO 205; assay: NCI-60 SRB screen: colon cancer COLO 205; format: cell-based, human
[8] = system: NCI/ADR-RES; assay: NCI-60 SRB screen: ovarian cancer NCI/ADR-RES; format: cell-based, human
[9] = system: Prostate cancer subpanel; assay: NCI-60 screen, subpanel Prostate cancer
[10] = system: ACHN; assay: NCI-60 SRB screen: renal cancer ACHN; format: cell-based, human
[11] = system: Colon Cancer subpanel; assay: NCI-60 screen, subpanel Colon Cancer
[12] = system: OVCAR-3; assay: NCI-60 SRB screen: ovarian cancer OVCAR-3; format: cell-based, human
[13] = system: Leukemia subpanel; assay: NCI-60 screen, subpanel Leukemia
[14] = system: CAKI-1; assay: NCI-60 SRB screen: renal cancer CAKI-1; format: cell-based, human
[15] = system: T-47D; assay: NCI-60 SRB screen: breast cancer T-47D; format: cell-based, human
[16] = system: SF-539; assay: NCI-60 SRB screen: CNS cancer SF-539; format: cell-based, human
[17] = system: MDA-MB-231/ATCC; assay: NCI-60 SRB screen: breast cancer MDA-MB-231/ATCC; format: cell-based; details: Homo sapiens, MDA-MB-231, 48 h
[18] = system: RXF 393; assay: NCI-60 SRB screen: renal cancer RXF 393; format: cell-based, human
[19] = system: HL-60(TB); assay: NCI-60 SRB screen: leukemia HL-60(TB); format: cell-based; details: Homo sapiens, HL-60, 48 h
[20] = system: Melanoma subpanel; assay: NCI-60 screen, subpanel Melanoma
[21] = system: K-562; assay: NCI-60 SRB screen: leukemia K-562; format: cell-based, human
[22] = system: SK-OV-3; assay: NCI-60 SRB screen: ovarian cancer SK-OV-3; format: cell-based, human
[23] = system: NCI-H23; assay: NCI-60 SRB screen: non-small cell lung cancer NCI-H23; format: cell-based, human
[24] = system: Breast cancer subpanel; assay: NCI-60 screen, subpanel Breast cancer
[25] = system: OVCAR-5; assay: NCI-60 SRB screen: ovarian cancer OVCAR-5; format: cell-based, human
[26] = system: NCI-H322M; assay: NCI-60 SRB screen: non-small cell lung cancer NCI-H322M; format: cell-based, human
[27] = system: MALME-3M; assay: NCI-60 SRB screen: melanoma MALME-3M; format: cell-based, human
[28] = system: MDA-MB-435; assay: NCI-60 SRB screen: melanoma MDA-MB-435; format: cell-based, human
[29] = system: UACC-257; assay: NCI-60 SRB screen: melanoma UACC-257; format: cell-based, human
[30] = system: NCI-H460; assay: NCI-60 SRB screen: non-small cell lung cancer NCI-H460; format: cell-based; details: Homo sapiens, NCI-H460, 48 h
[31] = system: HOP-92; assay: NCI-60 SRB screen: non-small cell lung cancer HOP-92; format: cell-based, human
[32] = system: MOLT-4; assay: NCI-60 SRB screen: leukemia MOLT-4; format: cell-based; details: Homo sapiens, MOLT-4, 48 h
[33] = system: NSCL cancer subpanel; assay: NCI-60 screen, subpanel NSCL cancer
[34] = system: Renal Cancer subpanel; assay: NCI-60 screen, subpanel Renal Cancer
[35] = system: BT-549; assay: NCI-60 SRB screen: breast cancer BT-549; format: cell-based, human
[36] = read-out: Percentage Cell Growth

## C=C(C)[C@@H]1CC[C@]2(C(N)=O)CC[C@]3(C)[C@H](CC[C@@H]4[C@@]5(C)CC[C@H](O)C(C)(C)[C@@H]5CC[C@]43C)[C@@H]12 [Compound 5]
[1]; Homo sapiens, KM12, 48 h
  GI50: 3.2 µM
[1]; KM12, single dose 10 µM
  Percentage Cell Growth: −63.59%
[2]; read-out: GI50 ranges against all panels of NCI60
  GI50: 1.09 to 13.2 µM
[2]; read-out: MID a, average sensitivity of all cell line (GI50-MID)
  GI50: 3.67 µM
[3]
  GI50: 2.56 µM
[3]; [36]
  activity at 10 µM: -49.5%
[4]; A498, single dose 10 µM
  Percentage Cell Growth: −28.33%
[4]; Homo sapiens, A498, 48 h
  GI50: 12.2 µM
[5]; Homo sapiens, PC-3, 48 h
  GI50: 2.83 µM
[5]; PC-3, single dose 10 µM
  Percentage Cell Growth: −24.47%
[6]; Homo sapiens, 48 h
  GI50: 2.96 µM
[6]; single dose 10 µM
  Percentage Cell Growth: −10.31%
[7]; COLO 205, single dose 10 µM
  Percentage Cell Growth: −66.21%
[7]; Homo sapiens, COLO 205, 48 h
  GI50: 3.63 µM
[8]; Homo sapiens, 48 h
  GI50: 3.17 µM
[8]; single dose 10 µM
  Percentage Cell Growth: −8.91%
[9]
  MID b, average sensitivity of all cell line of particular subpanel: 3.02 µM
  Selectivity, ratio MID a: MID b: 1.22
[10]; Homo sapiens, 48 h
  GI50: 2.44 µM
[10]; single dose 10 µM
  Percentage Cell Growth: −80.29%
[11]
  MID b, average sensitivity of all cell line of particular subpanel: 3.21 µM
  Selectivity, ratio MID a: MID b: 1.14
[12]; Homo sapiens, OVCAR-3, 48 h
  GI50: 2.07 µM
[12]; OVCAR-3, single dose 10 µM
  Percentage Cell Growth: −46.59%
[13]
  MID b, average sensitivity of all cell line of particular subpanel: 3.20 µM
  Selectivity, ratio MID a: MID b: 1.15
[14]; CAKI-1, single dose 10 µM
  Percentage Cell Growth: −64.30%
[14]; Homo sapiens, CAKI-1, 48 h
  GI50: 1.98 µM
[15]; Homo sapiens, T47D, 48 h
  GI50: 4.55 µM
[15]; T-47D, single dose 10 µM
  Percentage Cell Growth: −24.75%
[16]; Homo sapiens, SF-539, 48 h
  GI50: 1.78 µM
[16]; SF-539, single dose 10 µM
  Percentage Cell Growth: −70.46%
[17]
  GI50: 1.97 µM
[17]; [36]
  activity at 10 µM: -28.4%
[18]; Homo sapiens, RXF 393, 48 h
  GI50: 2.1 µM
[18]; RXF 393, single dose 10 µM
  Percentage Cell Growth: −49.35%
[19]
  GI50: 3.59 µM
[19]; [36]
  activity at 10 µM: 1.17%
[20]
  MID b, average sensitivity of all cell line of particular subpanel: 5.58 µM
  Selectivity, ratio MID a: MID b: 0.66
[21]; Homo sapiens, K562, 48 h
  GI50: 3.04 µM
[21]; K-562, single dose 10 µM
  Percentage Cell Growth: 4.57%
[22]; Homo sapiens, SK-OV-3, 48 h
  GI50: 8.18 µM
[22]; SK-OV-3, single dose 10 µM
  Percentage Cell Growth: −45.72%
[23]; Homo sapiens, NCI-H23, 48 h
  GI50: 2.26 µM
[23]; NCI-H23, single dose 10 µM
  Percentage Cell Growth: −27.08%
[24]
  MID b, average sensitivity of all cell line of particular subpanel: 3.73 µM
  Selectivity, ratio MID a: MID b: 0.98
[25]; Homo sapiens, OVCAR-5, 48 h
  GI50: 3.78 µM
[25]; OVCAR-5, single dose 10 µM
  Percentage Cell Growth: −21.57%
[26]; Homo sapiens, 48 h
  GI50: 2.59 µM
[26]; single dose 10 µM
  Percentage Cell Growth: −58.91%
[27]; Homo sapiens, Malme-3M, 48 h
  GI50: 2.39 µM
[27]; MALME-3M, single dose 10 µM
  Percentage Cell Growth: −57.05%
[28]; Homo sapiens, MDA-MB-435, 48 h
  GI50: 8.65 µM
[28]; MDA-MB-435, single dose 10 µM
  Percentage Cell Growth: −4.44%
[29]; Homo sapiens, UACC-257, 48 h
  GI50: 13.2 µM
[29]; UACC-257, single dose 10 µM
  Percentage Cell Growth: −6.08%
[30]
  GI50: 2.12 µM
[30]; [36]
  activity at 10 µM: -37.5%
[31]; HOP-92, single dose 10 µM
  Percentage Cell Growth: −62.83%
[31]; Homo sapiens, HOP-92, 48 h
  GI50: 2.69 µM
[32]
  GI50: 3.43 µM
[32]; [36]
  activity at 10 µM: 1.86%
[33]
  MID b, average sensitivity of all cell line of particular subpanel: 2.79 µM
  Selectivity, ratio MID a: MID b: 1.32
[34]
  MID b, average sensitivity of all cell line of particular subpanel: 3.53 µM
  Selectivity, ratio MID a: MID b: 1.04
[35]; BT-549, single dose 10 µM
  Percentage Cell Growth: −21.60%
[35]; Homo sapiens, BT-549, 48 h
  GI50: 3.99 µM

Source: paper PMC7587962, “Evaluation of Cytotoxicity and α-Glucosidase Inhibitory Activity of Amide and Polyamino-Derivatives of Lupane Triterpenoids” (Molecules, 2020)
